From ChEMBL document CHEMBL3046274, “Toxicity of imidacloprid to developmental stages of Rhynchophorus ferrugineus (Curculionidae: Coleoptera): Laboratory and field tests” (Crop Prot, 2006)

Columns and labels:
Type in all cases: ADME
Root [1] = experiment: Drug uptake in Phoenix dactylifera (date palm) roots at 2.5 ml/l at 20 days post-treatment by UV spectrophotometric analysis; details: 480 h
Root [2] = experiment: Drug uptake in Phoenix dactylifera (date palm) roots at 2.5 ml/l at 10 days post-treatment by UV spectrophotometric analysis; details: 240 h
Gomar [3] = experiment: Drug uptake in Phoenix dactylifera (date palm) gomar at 2.5 ml/l at 20 days post-treatment by UV spectrophotometric analysis; details: 480 h
Gomar [4] = experiment: Drug uptake in Phoenix dactylifera (date palm) gomar at 2.5 ml/l at 10 days post-treatment by UV spectrophotometric analysis; details: 240 h
Leaf base [5] = experiment: Drug uptake in Phoenix dactylifera (date palm) leaf base at 2.5 ml/l at 20 days post-treatment by UV spectrophotometric analysis; details: 480 h
Leaf base [6] = experiment: Drug uptake in Phoenix dactylifera (date palm) leaf base at 2.5 ml/l at 10 days post-treatment by UV spectrophotometric analysis; details: 240 h
Rachis [7] = experiment: Drug uptake in Phoenix dactylifera (date palm) rachis at 2.5 ml/l at 20 days post-treatment by UV spectrophotometric analysis; details: 480 h
Rachis [8] = experiment: Drug uptake in Phoenix dactylifera (date palm) rachis at 2.5 ml/l at 10 days post-treatment by UV spectrophotometric analysis; details: 240 h
Pinnae [9] = experiment: Drug uptake in Phoenix dactylifera (date palm) pinnae at 2.5 ml/l at 20 days post-treatment by UV spectrophotometric analysis; details: 480 h
Pinnae [10] = experiment: Drug uptake in Phoenix dactylifera (date palm) pinnae at 2.5 ml/l at 10 days post-treatment by UV spectrophotometric analysis; details: 240 h

O=[N+]([O-])NC1=NCCN1Cc1ccc(Cl)nc1 [IMIDACLOPRID]
Drug uptake (Root [1]): 0.18 ppm
Drug uptake (Root [2]): 0.41 ppm
Drug uptake (Gomar [3]): 0.33 ppm
Drug uptake (Gomar [4]): 0.46 ppm
Drug uptake (Leaf base [5]): 0.38 ppm
Drug uptake (Leaf base [6]): 0.51 ppm
Drug uptake (Rachis [7]): 1.11 ppm
Drug uptake (Rachis [8]): 1.31 ppm
Drug uptake (Pinnae [9]): 1.21 ppm
Drug uptake (Pinnae [10]): 0.32 ppm
